US10149881B2, “Method for treating inflammatory, allergic or asthma diseases, containing paprika extracts” (priority 2010, dated 2018)

Key:
Type in all cases: in vivo, mice
[1] = system: infiltration of immune cells; experiment: Immune cell infiltration, comparison with luteolin in asthma model; settings: FIG. 12
Procedure: In order to examine whether the asthma inhibitory effect of the paprika extract of the present invention is attributable to a combination of components or a specific component alone, the following test was carried out. Specifically, the immune cell infiltration of luteolin was examined.

IgG2a = experiment: Analysis of IgG2a, OVA asthma mouse model; settings: FIG. 14
Procedure: (§1) Meanwhile, immunoglobulin IgG2a is produced by activation of Th1 cells, and the activity of Th1 cells reduces the level of IgG1 which is increased by the activity of Th2 cells. Thus, IgG1 and IgG2a were analyzed.

immunoglobulin-E (IgE) = experiment: Measurement of blood immunoglobulin E (IgE) level, OVA asthma mouse model; settings: FIG. 13
Procedure: When asthma in mice is induced using OVA, the immunoglobulin-E (IgE) among the blood antibody levels of the mice increases in proportion to the severity of asthma. Based on this principle, the paprika extract obtained according to the method of Example 1 was named “sample SP526”, and the blood immunoglobulin-E (IgE) level of the mice was measured. Also, the level of immunoglobulin-E (IgE) was measured.

IgG1 = experiment: Analysis of IgG1, OVA asthma mouse model; settings: blood; FIG. 11, FIG. 14
Procedure: as §1

With `O=c1cc(-c2ccc(O)c(O)c2)oc2cc(O)cc(O)c12` [luteolin] the “infiltration of immune cells” value [1] was “inhibited the infiltration of immune cells”, the “IgG2a, index of the activation of Th1 cells” value (IgG2a) was “produced IgG2a” and the “effect on blood immunoglobulin-E levels” value (immunoglobulin-E (IgE)) was “did not reduce”. The “expression of IgG1” value (IgG1) was “not inhibited”.
